Measurements as given in a melting point compilation (Tetko et al.).

| Compound | melting point |
| --- | --- |
| CC(=O)c1ccc(I)s1 | 128 °C |
| Nc1cc(C(F)(F)F)c(F)cc1Br | 27 °C |
| CNP(=O)(OC)Oc1ccc(C(C)(C)C)cc1Cl (stereo not drawn) | 60 °C |
| CCc1ccccc1[N+](=O)[O-] | -12.3 °C |
| O=C1/C(=C\c2ccc(Cl)cc2)SC(=S)N1CN1CCCCC1 | 122 °C |
| CCOC(=O)C(C#N)=NO | 130 °C |
| Nc1c(Cl)c(Cl)cc(Cl)c1Cl | 107 °C |
| O=C=Nc1ccc(I)cc1 | 45 °C |
| CC(C)=CC1C(C(=O)OCN2C(=O)C3=C(CCCC3)C2=O)C1(C)C (stereo not drawn) | 69 °C |
| C=C(C)CNC(=S)NC | 60 to 64 °C |
| CN1CCN(Cc2cccc(I)c2)CC1 | 81 to 83 °C |
| CC(=CC(=O)O)C(F)(F)F | 28 to 30 °C |
| C#CCl | -126 °C |
| Cc1nn(C)c2ncc(C(=O)O)c(Cl)c12 | 269 °C |
| Cc1c(C)c(C)c(S(=O)(=O)Cl)c(C)c1C | 80 °C |
| CN(N=O)c1ccccc1 | 14.7 °C |
| N=C(N)NC(=O)Cc1c(Cl)cccc1Cl | 226 °C |
| FC(F)(F)C(F)(F)C(F)(F)N(C(F)(F)C(F)(F)C(F)(F)F)C(F)(F)C(F)(F)C(F)(F)F | -52 °C |
| FC1(F)C(Cl)=C(Cl)C(F)(F)C(F)(F)C1(F)F | -70 °C |
| O=C(O)C(=S)CC1CCCC(CC(=S)C(=O)O)C1 (stereo not drawn) | 85 °C |
| CC(=O)Nc1ccc(C#N)c(C(F)(F)F)c1 | 170 to 173 °C |
| O=[N+]([O-])c1ccc(NN=Cc2cccc3c(Br)ccc([N+](=O)[O-])c23)c([N+](=O)[O-])c1 | 243 to 244 °C |
| Cc1cc2nnc(C(=O)O)c(C)n2n1 | 166 to 168 °C |
| CC(C)[C@@H](NC(=O)OC(C)(C)C)C(=O)O | 164 to 165 °C |
| Cc1c(C#N)cccc1C#N | 136 °C |
| N#CC1(O)CCCCC1 | 35 °C |

| Compound | melting point |
| --- | --- |
| CC(C)(C)OC(=O)N1CCCC(=O)C1 | 38 °C |
| NNC(=O)COc1ccc(F)cc1 | 125 °C |
| CCNc1nc(Cl)nc(NC(C)(C)C#N)n1 | 168 °C |
| CCOC(=O)C(C)(C)C(=O)OCC | -30.4 °C |
| O=C(c1ccc[nH]1)C(Cl)(Cl)Cl | 72 to 74 °C |
| CC(O)CC(C)O (stereo not drawn) | 50 to 52 °C |
| CC1CCC2(C)C3=C(C(=O)C4(CC4C)C(O)C3=O)C(O)C(O)C2C1C (stereo not drawn) | 177 to 178 °C |
| O=C(Nc1ccc(Cl)cc1)C(Cl)=C(Cl)Cl | 146 °C |
| CC(C)(C)OC(=O)N1CCC(OCC(=O)NC2CC2)CC1 | 86 °C |
| CCOC(=O)C1CCN(c2ncnc3ccsc23)CC1 | 64 to 66 °C |
| CC12CCC3C(CCC4CC(=O)CCC43C)C1CC(=O)C2 (stereo not drawn) | 163 °C |
| O=C(O)C1CCC1 | -2 °C |
| Nc1ccc(N=Nc2ccccc2)cc1 | 127 °C |
| O=C(O)c1c(C(F)(F)F)ccnc1F | 92 °C |
| CC(=O)OC1C(c2ccc(=O)oc2)C2(C)CCC3C(CCC4(O)CC(O)CCC34C)C23OC13 (stereo not drawn) | 260 °C |
| CC(=O)C1(O)C(C)CC2C3CC=C4CC(O)CCC4(C)C3CCC21C (stereo not drawn) | 224 to 230 °C |
| CCCCCCCCCCCCC(C)CC (stereo not drawn) | -22 °C |
| CC1COCc2cc3c(cc21)C(C)(C)C(C)C3(C)C (stereo not drawn) | -5 °C |
| CC1Cc2c(Cl)cc(C(=O)NC(Cc3ccccc3)C(=O)O)c(O)c2C(=O)O1 (stereo not drawn) | 169 °C |
| FC(F)(F)N1C(F)(F)C(F)(F)OC(F)(F)C1(F)F | -80 °C |
| CCOC(=O)c1cnc(C(F)(F)F)nc1Cl | 36 to 37 °C |
| OCC(F)(F)C(F)(F)C(F)(F)C(F)(F)C(F)(F)C(F)(F)CO | 80 to 83 °C |
| CC(O)C1(C)CCC2=C1CCC1C2CCC2(C)CC(O)CCC12C (stereo not drawn) | 205 to 207 °C |
| Oc1ccc(C2SCCS2)cc1 | 118 °C |
| Fc1c(F)c(Cl)c(F)c(F)c1S | 47 to 52 °C |
| N#Cc1cnc(N)s1 | 185 °C |

Continued, values first:

| melting point | Compound |
| --- | --- |
| 168 to 169 °C | Nc1ccc(C(=O)O)cc1OC(F)(F)F |
| 197 °C | N#CC1=C(N)Oc2[nH]nc(C(F)(F)F)c2C1c1ccc(O)cc1 (stereo not drawn) |
| 190 °C | N#Cc1c(-c2ccc(Br)cc2)cc2c(C#N)c(=N)n(C(=O)c3ccc(Cl)cc3)n2c1N |
| 120 to 122 °C | CC(C)(C)OC(=O)N1CCN(c2ccccc2N)CC1 |
| 247 °C | COC(=O)C1=C(C)NC(=S)NC1c1cccc([N+](=O)[O-])c1 (stereo not drawn) |
| 106 °C | Cc1ccc(C#N)cc1[N+](=O)[O-] |
| 108 to 111 °C | COc1ccc(C(O)C(=O)O)cc1 (stereo not drawn) |
| 163 to 165 °C | COc1ccc(C(c2c(O)cc(C)oc2=O)c2c(O)cc(C)oc2=O)cc1 |
| 29 °C | O=C1CCSc2ccccc21 |
| 143 °C | Cc1ccc(-c2ccc(/C=C/C(=O)c3ccc(C)o3)o2)cc1 |
| 124 °C | COc1ccc(C(=O)OC2Cc3ccccc32)cc1 (stereo not drawn) |
| 124 to 131 °C | CSCN1C(=O)NC(c2ccccc2)(c2ccccc2)C1=O |
| 305 to 306 °C | N#C/C(=C\c1ccc(F)cc1)c1nc2ccccc2c(=O)[nH]1 |
| 38 °C | Cc1cc2c(c(C)c1C)CC2 |
| 42 °C | CCc1ccc(CCO)nc1 |
| 48 to 51 °C | Cc1ccc(S(=O)(=O)OCCOCc2ccccc2)cc1 |
| 152 to 155 °C | Cc1cc2cc(N)ccc2[nH]1 |
| 165 to 167 °C | Nc1n[nH]c(N)c1Cc1ccc(Cl)cc1 |
| 99 to 101 °C | O=Cc1cccc2nsnc12 |
| -34.1 °C | COc1ccccc1C |
| 115 to 117 °C | CC(=O)Nc1ccccc1/C=C\c1ccccc1 |
| 156 °C | O=[N+]([O-])c1cc(Cl)c(Cl)cc1Nc1ccccn1 |
| 180 °C | CCOC(=O)C1=C(C)NC(=O)NC1c1ccccc1 (stereo not drawn) |
| 189 °C | Nc1cccc2c(O)cccc12 |
| 237 to 240 °C | NC(Cc1ccc(F)c(F)c1)C(=O)O (racemic) |
| 49 to 50 °C | OCc1csc2ccccc12 |

| melting point | Compound |
| --- | --- |
| 118 °C | Cc1ccc([N+](=O)[O-])cc1O |
| 142 °C | O=C(CN1CCN(Cc2ccc3c(c2)OCO3)CC1)N1c2ccccc2Sc2ccccc21 |
| 177 °C | CC1=CC=CC2(C)Cc3ccccc3C(=O)N12 (stereo not drawn) |
| 209 to 211 °C | CSc1sc(C(=O)O)c(-c2cccc(Cl)c2)c1C#N |
| 227 °C | COC1=CC(C)C2CC3OC(O)CC4C(C)=C(OC)C(=O)C(C2(C)C1=O)C34C (stereo not drawn) |
| 247 °C | Nc1ccc(N=Nc2ccc([N+]([O-])=Nc3ccc(N)cc3)cc2)cc1 |
| 73 to 76 °C | COc1ccc(C(=O)c2cccs2)cc1 |
| 184 °C | Cc1n[nH]c(C)c1/C=C/c1ccccc1 |
| 139 °C | Cc1ccc(NC=CC(=O)c2ccc3c(c2)CCCC3)cc1 |
| 181 °C | COc1ccc(C(=O)c2coc(S(N)(=O)=O)c2)cc1 |
| 222 to 230 °C | O=CC(C=O)c1nc2ccccc2o1 |
| 142 °C | COc1ccc(-c2csc(/C(C#N)=C/c3ccc(Cl)cc3Cl)n2)cc1 |
| 285 °C | CC(=O)Nc1cc(CCNC(=O)c2ccccc2)c(NC(C)=O)cc1CCNC(=O)c1ccccc1 |
| 58 to 63 °C | OCc1ccc2nsnc2c1 |
| 150 to 152 °C | CCOC(=O)Cc1nn(CC(N)=S)c(=O)c2ccccc12 |
| 127 to 130 °C | COc1ccc(-c2cc[nH]n2)cc1 |
| 127 °C | O=[N+]([O-])c1ccccc1-c1onc(-c2ccccc2)c1-c1ccccc1 |
| 56 to 59 °C | CC(=O)c1c(-c2ccc(Cl)cc2)noc1C |
| 171 to 172 °C | Cc1nnc2sc(SCc3ccc(Cl)cc3)nn2c1=O |
| 160 to 170 °C | O=c1onc2cnc3ccccc3n12 |
| 51 to 54 °C | c1ccc(N2CCOCC2)cc1 |
| 215 °C | Nc1ccc(N=Nc2ccc([N+](=O)[O-])cc2)cc1 |
| 76 °C | COc1cc(F)ccc1C#N |
| 162 to 165 °C | O=C(O)Cc1c[nH]c2ccc(O)cc12 |
| 110 °C | COc1ccc(CC(=O)O)c(OC)c1 |
| 70 to 73 °C | CCOC(=O)c1ccc(Oc2ccc(C)nn2)cc1 |

| melting point | Compound |
| --- | --- |
| 259 to 260 °C | CSc1nc2cc(N=Cc3ccc([N+](=O)[O-])cc3)ccc2[nH]1 |
| 99 to 102 °C | OCc1cc(-c2ccccc2)on1 |
| 134 to 136 °C | CSc1nc2ccc([N+](=O)[O-])cc2s1 |
| 32.5 °C | O=[N+]([O-])c1ccccc1C(F)(F)F |
| 170 °C | Cc1nc(/C(C#N)=C/c2ccc(F)cc2)sc1/N=N/c1c(Br)cc(Br)cc1Br |
| 34 °C | CCOCCOC(=O)c1ccccc1C(=O)OCCOCC |
| 148 °C | Cc1ccccc1/C=C(\C#N)c1nc2ccccc2s1 |
| 220 to 222 °C | CCOC(=O)c1[nH]c(C)c(CO)c1C |
| 123 to 124 °C | Brc1ccc2[nH]ncc2c1 |
| 46 to 54 °C | COc1ccc(C=O)cn1 |
| 56.5 °C | CCCOc1ccc(O)cc1 |
| 236 to 238 °C | C/C(=N\c1ccc(C(=O)O)cc1)c1c(O)c2ccccc2n(-c2ccccc2)c1=O |
| 112 °C | O=C(O)COc1ccc(CO)cc1 |
| 173 °C | O=C(OCCc1ccc(CCOC(=O)c2ccc([N+](=O)[O-])cc2)cc1)c1ccc([N+](=O)[O-])cc1 |
| 109 to 112 °C | O=C(CBr)c1cc(-c2ccccc2)no1 |
| 107 °C | Cc1ccc(O)c([N+](=O)[O-])n1 |
| 160 to 165 °C | Cc1[nH]c2c([N+](=O)[O-])cccc2c1C |
| 43 to 44 °C | Cn1ccc2cc(Br)ccc21 |
| 62.1 °C | Cc1cc(O)c(C(C)(C)C)cc1C(C)(C)C |
| 89 °C | CCCCCOC(=O)COc1cc(N2C(=O)C3=C(CCCC3)C2=O)c(F)cc1Cl |
| 78 °C | CCc1cc2cc(OC)c(OC)cc2c(Cc2ccccc2)n1 |
| 191 to 198 °C | CS(=O)(=O)c1ccc(N)c(Cl)c1 |
| 43.5 °C | C#CC(C)N(C(=O)CCl)c1ccccc1 (stereo not drawn) |
| 96 to 97 °C | Nc1cccnc1Oc1ccc(F)cc1F |
